According to patent US12691089B2, “Stable levothyroxine compositions in aprotic polar solvents” (Xeris Pharmaceuticals, Inc., priority 2022, dated 2026):
Blank lines part the entries; values can stand above or below the compound they belong to.

What was measured:
[1] = cited from earlier work
[2] = Storage stability of levothyroxine formulations in acidified DMSO (RP-HPLC T4/T3); assay type: physicochemical; settings: 10 mg/mL in DMSO
Protocol: Based on the results shown above, formulations of levothyroxine sodium were prepared at an acid concentration that promoted chemical stability and a moisture content of at least 4% (w/w). […] The overall moisture content of the formulation was ~5% when prepared using 1.0 N H2SO4. The moisture content of this formulation was due almost entirely to the added sulfuric acid (with a minor contribution from the trehalose dihydrate), which at 26 mM (from a 1.0 N (0.5 M) stock solution) results in a moisture content~5% (w/w). When prepared using concentrated acid (e.g., 10 N), the overall moisture content of the formulation could be reduced to about ~1% without any significant impact on storage stability.
An example of the stability that can be achieved using this formulation approach at multiple temperatures for up to 6 months is shown in Table 1, which represents the purity of T4 (levothyroxine sodium) in the 10 mg/mL, 26-28 mM acid DMSO formulations described above, over time at various storage temperatures. Results shown are measurements of T4 vs. T3 (triiodothyronine, the main degradation product of T4), determined as described above via RP-HPLC. In this table, the higher the percentage of T4 and the lower the percentage of T3, the less degradation observed in the levothyroxine formulations over time.

[3] = Solubility of levothyroxine sodium in DMSO; assay type: physicochemical; settings: organic solvent or mixture
Excerpt: However, direct dissolution of levothyroxine sodium in DMSO (with no added excipients) caused rapid visual discoloration and chemical degradation (where the extent of discoloration generally correlates with degradation). […] Additionally, the chemical degradation appeared to be associated with the discoloration of the solution that was observed.

[4] = Accelerated stability of 5 mg/mL levothyroxine in (acidified) DMSO: discoloration and RP-HPLC
Protocol: To attempt to overcome these discoloration and degradation problems, levothyroxine solutions were prepared with either the free acid or the sodium salt of levothyroxine dissolved in acidified DMSO, at a levothyroxine sodium concentration of 5 mg/mL. To prepare acidified DMSO solvents, DMSO was acidified with 0-10 mM H2SO4 (from a 1.0 N H2SO4 stock solution), and samples were stored in 2 mL glass vials (0.5 mL fill volume per vial) and stored at 45° C. upright for 9 days for an accelerated stability analysis without any secondary packaging (e.g., foil pouch). Samples were then photographed (to examine discoloration) and examined via reverse phase HPLC (to examine levothyroxine chemical stability), comparing day 0 samples to day 9 samples (vs. a sample of each formulation that was frozen and held at −20° C. as a “time 0” control).
To determine if the discoloration observed with these formulations correlated with levothyroxine chemical degradation, samples of each vial were assessed via reverse phase HPLC (RP-HPLC).

Structure (SMILES): N[C@@H](Cc1cc(I)c(Oc2cc(I)c(O)c(I)c2)c(I)c1)C(=O)O [levothyroxine]
solubility in water [1]: ≤ 0.1 mg/mL

chemical stability (T4 peak purity) vs acid concentration ([2]; <26 mM sulfuric acid): extensive chemical degradation
chemical stability (T4 peak purity) vs acid concentration ([2]; above approximate 26 mM acid): chemical stability essentially plateaus
solubility [3]: ≥ 30 mg/mL
discoloration ([4]; 5 mg/mL in DMSO, 10 mM H2SO4, 9 days at 45° C.): no significant discoloration
Structure (SMILES): N[C@@H](Cc1cc(I)c(Oc2cc(I)c(O)c(I)c2)c(I)c1)C(=O)O [levothyroxine sodium]
discoloration ([4]; 5 mg/mL in DMSO, H2SO4 below 4 mM, day 0): degradation-associated discoloration fairly quickly

degradation by RP-HPLC ([4]; 5 mg/mL in DMSO, 0-2 mM H2SO4, 9 days at 45° C.): extensive degradation
discoloration ([4]; 5 mg/mL in DMSO, 0-10 mM H2SO4, day 0): did not show significant discoloration
discoloration compared to levothyroxine sodium salt ([4]; 5 mg/mL in DMSO, all concentrations of acid, 9 days at 45° C.): lower amount of discoloration
sulfuric acid concentration necessary to significantly enhance chemical stability ([4]; 5 mg/mL solution in DMSO, accelerated stability testing): ~ 10 mM
Structure (SMILES): N[C@@H](Cc1cc(I)c(Oc2cc(I)c(O)c(I)c2)c(I)c1)C(=O)O [levothyroxine free acid]
